Where “and” joins values, the source holds several entries; their conditions need not be identical. Equal values may be shown once. Read-outs that look alike come from different tables or passages of the source.
Assay: Pharmacokinetic study in mice, plasma and brain structures, LC/MS/MS
Type: in vivo, Swiss albino mice
Settings: 0.625 mg/kg i.p.; for Kp: ratio of AUC values
Protocol: Blood samples from the Swiss albino mice were collected at 0 (pre-dose), 5, 15, 30, 60, 120, 240 and 480 min after a compound administration. The blood samples and brain structures were collected under general anesthesia induced by i.p. injection of 50 mg/kg ketamine plus 8 mg/kg xylazine. The blood samples were taken into heparinized tubes, immediately centrifuged at 1000 × g for 10 min, and plasma was collected. The plasma samples and brain structures were immediately frozen at -30°C and -80°C, respectively.
The plasma and tissue sample pretreatment procedure involved acetonitrile precipitation. A 5 μL aliquot of the IS working solution (100 ng/mL) was added to 50 μL of the collected mouse plasma sample, which was then vortex-mixed for 10 seconds. Thereafter, 200 μL of acetonitrile was added, vortexed during 20 min, and then centrifuged (1000 × g, 10 min). The supernatant (100 μL) was then transferred to insert placed in an autosampler vial, and a 10 μL volume of this was injected onto the HPLC column. Tissue samples were thawed before use, and whole hippocampus, striatum and frontal cortex were weighted and placed in a glass mortar and pestle tissue grinder and homogenized with an appropriate amount of phosphate buffer (pH 7.4) in 1:5 ratio. Afterward, 50 μL of tissue homogenates were transferred to new Eppendorf tubes and spiked with 5 μL of the internal standard working solution. All samples were stored on ice during the preparation process. This was followed by procedures like those described above.
The LC/ESI-MS/MS experiments were performed on an Applied Biosystems/MDS Sciex (Concord, Ontario, Canada) API 2000 triple quadrupole mass spectrometer equipped with an electrospray (ESI) ionization interface. This instrument was coupled to an Agilent 1100 (Agilent Technologies, Waldbronn, Germany) LC system. Data acquisition and processing were accomplished using Sciex Analyst 1.4.2 data collection and integration software.
An XBridge C18 (2.1 x 30 mm, 3.5 μm) analytical column (Waters, Milford, Massachusetts, USA) was used for compound separation. The temperatures of the column thermostat and the autosampler were set at 25°C and 10°C, respectively. The mobile phase consisted of a mixture of acetonitrile with addition of 0.1% formic acid (solvent A) and water with addition of 0.1% formic acid (solvent B) and was set at a flow rate of 0.6 mL/min. Starting amount of solvent A is 10%, isocratic elution from 0 to 3 min, and then gradient up to 90% of solvent A, and maintained to 10 min, and then gradient down to 10% of solvent A, and maintained to 15 min.
The ion source parameters were as follows: ion spray voltage: 5500 V; nebulizer gas (gas 1): 20 psi; turbo gas (gas 2): 25 psi; temperature of the heated nebulizer: 400°C; curtain gas: 40 psi; collision gas: 6 psi. Mass spectra were acquired by SRM with precursor/predominant product ion transitions for each analyte. The mass spectral Q1→Q3 transitions monitored for AZ-853, AZ-861 and for IS (nebivolol), were m/z 453.9→235.1; 504.3→285.1 and 406.2→151.1, respectively. The peak widths of precursor and product ions were set to 0.7 full width half-height. Quantification was done via peak area ratio.
Pharmacokinetic parameters were calculated by a non-compartmental approach from the average concentration values, using Phoenix WinNonlin software (Certara, Princeton, NJ 08540 USA). First order elimination rate constant (λz) was calculated by linear regression of time versus log concentration. Next, the area under the mean serum and tissue concentration versus time curve (AUC0→t) was estimated using the log-linear trapezoidal rule (1), where Ci is the plasma concentration measured at t1.
AUC0→t=∑i=1n((Ci+Ci+1)/2)∙(ti+1−ti). (1)
Area under the first-moment curve (AUMC0→t) was estimated by calculation of the total area under the first-moment curve using the Eq (2), where Ci is the plasma concentration measured at t1. AUMC0→t=∑i=1n((ti∙Ci+ti+1∙Ci+1)/2)∙(ti+1−ti). […]

[1] = Swiss albino, mouse, frontal cortex, ip, 0.625 mg/kg, read-out: Concentration, frontal cortex (Mean)
[2] = Swiss albino, mouse, frontal cortex, ip, 0.625 mg/kg, read-out: Concentration, frontal cortex (individual animals)

t0.5: ca. 1.5 h
t0.5, frontal cortex: 73.8 min
t0.5, hippocampus: 140.8 min
t0.5, striatum: 74.3 min
Cmax, plasma (0.625 mg/kg): 23.1 ng/mL
t0.5, plasma (0.625 mg/kg): 81 min and 81.6 min
Kp (Swiss albino, mouse, frontal cortex, ip, read-out: Brain structure-to-plasma concentration ratio, frontal cortex (FC/P)): 18.1
AUC(0-t) (Swiss albino, mouse, frontal cortex, ip, read-out: AUC0→t, frontal cortex (converted)): 321 ng·h/mL
MRT (Swiss albino, mouse, frontal cortex, ip, read-out: MRT, frontal cortex (converted)): 1.5 h
concentration at 5 min [1]: 306 ng/mL
concentration at 5 min [2]: 268 ng/mL
concentration at 15 min (Swiss albino, mouse, frontal cortex, ip, 0.625 mg/kg, 15 min, read-out: Concentration, frontal cortex (Mean)): 293 ng/mL
concentration at 15 min (Swiss albino, mouse, frontal cortex, ip, 0.625 mg/kg, 15 min, read-out: Concentration, frontal cortex (individual animals)): 318 ng/mL
concentration at 30 min (Swiss albino, mouse, frontal cortex, ip, 0.625 mg/kg, 30 min, read-out: Concentration, frontal cortex (Mean)): 156 ng/mL
concentration at 30 min (Swiss albino, mouse, frontal cortex, ip, 0.625 mg/kg, 30 min, read-out: Concentration, frontal cortex (individual animals)): 165 ng/mL
concentration at 60 min (Swiss albino, mouse, frontal cortex, ip, 0.625 mg/kg, 60 min, read-out: Concentration, frontal cortex (Mean)): 66 ng/mL
concentration at 60 min (Swiss albino, mouse, frontal cortex, ip, 0.625 mg/kg, 60 min, read-out: Concentration, frontal cortex (individual animals)): 56.3 ng/mL
concentration at 120 min (Swiss albino, mouse, frontal cortex, ip, 0.625 mg/kg, 120 min, read-out: Concentration, frontal cortex (Mean)): 27.5 ng/mL
concentration at 120 min (Swiss albino, mouse, frontal cortex, ip, 0.625 mg/kg, 120 min, read-out: Concentration, frontal cortex (individual animals)): 22.2 ng/mL
concentration at 240 min (Swiss albino, mouse, frontal cortex, ip, 0.625 mg/kg, 240 min, read-out: Concentration, frontal cortex (Mean)): 23.3 ng/mL
concentration at 240 min (Swiss albino, mouse, frontal cortex, ip, 0.625 mg/kg, 240 min, read-out: Concentration, frontal cortex (individual animals)): 20.8 ng/mL
concentration at 480 min [1]: 14.6 ng/mL
concentration at 480 min [2]: 18.6 ng/mL
Cmax (Swiss albino, mouse, frontal cortex, ip, 0.625 mg/kg, read-out: Cmax, frontal cortex): 306 ng/g
Tmax (Swiss albino, mouse, frontal cortex, ip, 0.625 mg/kg, read-out: tmax, frontal cortex (converted)): 5 min
Kp (Swiss albino, mouse, hippocampus, ip, read-out: Brain structure-to-plasma concentration ratio, hippocampus (H/P)): 11.9
AUC(0-t) (Swiss albino, mouse, hippocampus, ip, read-out: AUC0→t, hippocampus (converted)): 210 ng·h/mL
MRT (Swiss albino, mouse, hippocampus, ip, read-out: MRT, hippocampus (converted)): 1.19 h
concentration at 5 min (Swiss albino, mouse, hippocampus, ip, 0.625 mg/kg, read-out: Concentration, hippocampus (Mean)): 191 ng/mL
Compound: Cn1c(=O)c2c(nc3n(CCCCN4CCN(c5ccccc5F)CC4)ccn23)n(C)c1=O [AZ-853, 8-(4-(4-(2-fluorophenyl)piperazin-1-yl)butyl)-1,3-dimethyl-1H-imidazo[2,1-f]purine-2,4(3H,8H)-dione]
Concentration, frontal cortex (individual animals) (15 min, 0.625 mg/kg): 252.14 ng/mL and 309.85 ng/mL and 312.66 ng/mL and 273.19 ng/mL and 294.14 ng/mL
Concentration, hippocampus (individual animals) (15 min, 0.625 mg/kg): 298.87 ng/mL and 267.61 ng/mL and 299.52 ng/mL and 245.78 ng/mL and 289.53 ng/mL
Concentration, plasma (individual animals) (15 min, 0.625 mg/kg): 13.52 ng/mL and 11.72 ng/mL and 14.74 ng/mL and 12.63 ng/mL and 15.85 ng/mL
Concentration, striatum (individual animals) (15 min, 0.625 mg/kg): 445.83 ng/mL and 472.52 ng/mL and 361.97 ng/mL and 346.18 ng/mL and 398.36 ng/mL
Concentration, frontal cortex (individual animals) (30 min, 0.625 mg/kg): 130.57 ng/mL and 174.17 ng/mL and 183.87 ng/mL and 124.72 ng/mL and 156.16 ng/mL
Concentration, hippocampus (individual animals) (30 min, 0.625 mg/kg): 132.11 ng/mL and 120.56 ng/mL and 144.33 ng/mL and 115.85 ng/mL and 113.92 ng/mL
Concentration, plasma (individual animals) (30 min, 0.625 mg/kg): 7.23 ng/mL and 6.19 ng/mL and 8.12 ng/mL and 7.41 ng/mL and 8.48 ng/mL
Concentration, striatum (individual animals) (30 min, 0.625 mg/kg): 208.14 ng/mL and 240.54 ng/mL and 302.57 ng/mL and 256.75 ng/mL and 253.77 ng/mL
Concentration, frontal cortex (individual animals) (60 min, 0.625 mg/kg): 87.55 ng/mL and 56.45 ng/mL and 81.65 ng/mL and 55.78 ng/mL and 58.24 ng/mL
Concentration, hippocampus (individual animals) (60 min, 0.625 mg/kg): 35.33 ng/mL and 56.52 ng/mL and 54.16 ng/mL and 46.72 ng/mL and 33.91 ng/mL
Concentration, plasma (individual animals) (60 min, 0.625 mg/kg): 2.33 ng/mL and 1.80 ng/mL and 1.95 ng/mL and 1.94 ng/mL and 1.84 ng/mL and 0.83 ng/mL
Concentration, striatum (individual animals) (60 min, 0.625 mg/kg): 49.55 ng/mL and 56.86 ng/mL and 68.93 ng/mL and 73.14 ng/mL and 66.26 ng/mL
Concentration, frontal cortex (individual animals) (120 min, 0.625 mg/kg): 32.55 ng/mL and 33.75 ng/mL and 20.15 ng/mL and 30.26 ng/mL and 26.34 ng/mL
Concentration, hippocampus (individual animals) (120 min, 0.625 mg/kg): 15.62 ng/mL and 13.22 ng/mL and 11.37 ng/mL and 10.24 ng/mL and 11.13 ng/mL
Concentration, plasma (individual animals) (120 min, 0.625 mg/kg): 4.86 ng/mL and 4.58 ng/mL and 4.97 ng/mL and 3.54 ng/mL and 3.31 ng/mL
Concentration, striatum (individual animals) (120 min, 0.625 mg/kg): 39.45 ng/mL and 31.62 ng/mL and 38.75 ng/mL and 47.66 ng/mL and 39.13 ng/mL
Concentration, frontal cortex (individual animals) (240 min, 0.625 mg/kg): 24.26 ng/mL and 26.65 ng/mL and 19.77 ng/mL and 20.56 ng/mL
Concentration, hippocampus (individual animals) (240 min, 0.625 mg/kg): 6.95 ng/mL and 9.12 ng/mL and 10.23 ng/mL and 6.87 ng/mL
Concentration, plasma (individual animals) (240 min, 0.625 mg/kg): 0.37 ng/mL and 0.35 ng/mL and 0.45 ng/mL and 0.53 ng/mL and 0.33 ng/mL and 0.26 ng/mL
Concentration, striatum (individual animals) (240 min, 0.625 mg/kg): 2.35 ng/mL and 3.41 ng/mL and 6.93 ng/mL and 8.25 ng/mL and 6.34 ng/mL

From article PMC7413516, “Antidepressant-like activity and safety profile evaluation of 1H-imidazo[2,1-f]purine-2,4(3H,8H)-dione derivatives as 5-HT1A receptor partial agonists” (PLoS ONE, 2020)
